Marks after values point to notes of the source that are not given here.
Experiments:
[1] = system: subcutaneous CXCR4^+ SW1417 CRC tumor; experiment: Induction of DNA double strand breaks and apoptosis in tumor tissue, SC SW1417 model; assay type: in vivo, mouse; conditions: for number of apoptotic figures in tumor tissue (Hoechst nuclear condensation or defragmentation): 24 h after injection; for number of DSBs foci in tumors (anti-gH2AX IHC): five hours after treatment
Description: (§1) The SC SW1417 mouse model was used to determine the capacity of the nanoconjugate to induce DNA damage and apoptosis in tumor tissue, as well as the kinetics of CXCR4 expression in the membrane of tumor cells after treatment, regarding the fraction of CXCR4 expressing tumor cells and their intensity, since CXCR4^+ are the target cells for the nanoconjugate. […] The mice had been treated with equimolecular dosages of T22-GFP-H6, free oligo-FdU or Buffer, in which also were determined the levels of CXCR4 expression in tumor tissue at the different time points.

[2] = system: CXCR4^+ cancer cells in SC SW1417 CRC tumor; experiment: CXCR4+ cancer cell fraction in tumor tissue along time after single dose (anti-CXCR4 IHC); assay type: in vivo, mouse; conditions: 24 h, 48 h, 72 h after equimolecular dose
Description: as §1

[3] = system: CXCR4^+ SW1417 CRC metastases; experiment: Prevention of metastasis protocol, SC+ORT CXCR4+ SW1417 CRC model; assay type: in vivo, NOD/SCID mice
Description: Thus, a SC+ORT model, was produced: when SC tumors reached a volume of 700 mm3, mice were sacrificed by cervical dislocation and tumours were excised, discarding the necrotic areas. Three hundred mg of viable tumour tissue was then cut into pieces and disaggregated in a mix of 0.05% trypsin (Invitrogen) and 100 mg/ml DNase (Sigma-Aldrich). The mix was pipetted 30 times, using a 10 ml pipette, and incubated for 10 minutes at 37° C. with shaking. It was then re-pipetted 30 times, using 10 ml, 3 ml and 1 ml pipettes, and re-incubated for 5 minutes at 37° C. with shaking. This re-pipetting step was then repeated. The obtained SW1417 single-cell suspension was filtered through a cell strainer and centrifuged at 1,000 g for 10 minutes before counting the cells. Then 2×10^6 cells, […] resuspended in 50 μl of media, were microinjected in the cecum of each mouse, following the method described above.
The SC+ORT metastatic CRC model developed in NOD/SCID mice was used to evaluate the capacity of the nanoconjugate for metastasis prevention.
(§2) At necropsy, the number and size of visible metastases in the organs where dissemination is expected in colorectal cancer (lymph nodes, liver, lung and peritoneum) were recorded for each mouse in all compared groups. Also the number of metastatic foci that emitted bioluminiscence (derived from the SW1417-luci CRC cells) were counted ex vivo in the target organs for metastasis, using the IVIS® 200-Spectrum (Perkin-Elmer). Samples for histopathological and immunohistochemical analyses were collected and processed. Two independent observers analyzed H&E stained samples to count the number and measure the size of all observed metastatic foci in three (metastasis prevention experiment) or six (regression of metastasis experiment) sections of each organ in each mouse. The images were taken and the measurements were performed with an Olympus microscope with the CellD Olympus software (v3.3). […] The obtained results were used to study a possible correlation between CXCR4^+ CCF and antimetastatic effect at the different sites.
(§3) In order to analyze differences between control and experimental groups of affected mice in metastatic rates at the different organs, Fisher's exact test was used. The Mann-Whitney test was used to compare number and size of metastatic foci in the affected organs among groups. All quantitative values were expressed as mean±SE and the statistical tests were performed using SPSS version 11.0 (IBM, New York, USA). Differences among groups was considered significant at a p<0.05.

[4] = system: CXCR4^+ SW1417 CRC metastases; experiment: Regression of established metastasis protocol, orthotopic CXCR4+ SW1417 CRC model; assay type: in vivo, Swiss nude mice; conditions: for LN foci, mean foci number per mouse / Lung foci, mean foci number per mouse: Regression protocol, 6 histology sections, mean + SE; for LN foci, mean foci number per mouse: 20 μg (or equimolecular) q3d x10 i.v.
Description: Swiss nude mice were anesthetized with ketamine and xylazine, exteriorizing their cecum by a laparotomy. 2×106 CXCR4^+ SW1417-luci CRC cells (expressing luciferase, to allow ex vivo bioluminescent identification of metastatic foci in affected organs at the end of therapy) were suspended in […] of modified Eagle's medium, and loaded into a sterile micropipette. The cell suspension was slowly injected, under a binocular lens, with an approximate 30° angle and its tip introduced 5 mm into the cecal wall. Afterward, a slight pressure was applied with a cotton stick at approximately 2 mm from the injection point in the direction of the pipette axis. The pipette was pulled out and the area around the injection cleaned with 3% iodine. After injection, the gut was returned to the abdominal cavity and closed with surgical staples.
The orthotopic and metastatic CRC model developed in Swiss nude mice was employed to perform experiments of metastasis regression. […] The experiment was finished when the first animal of the buffer-treated-group had to be euthanized. See below the studied parameters to evaluate the antimetastatic effect.
as §2, §3

[5] = system: CXCR4^+ SW1417 CRC cells; experiment: Internalization in CXCR4+ SW1417 CRC cells (flow cytometry, AMD3100 competition); assay type: cell-based, human; conditions: antagonist 1:10 protein:antagonist molar ratio, 1 h before nanoconjugate
Description: CXCR4+ SW1417-luc CRC cells were cultured in modified Eagle's medium (Gibco, Rockville, MD) supplemented with 10% fetal calf serum (Gibco), and incubated at 37° C. and 5% CO2 in a humidified atmosphere. […] Fluorescence emission was measured with a D detector (530/30 nm band pass filter). To assess specificity for CXCR4 receptor-mediated internalization, competition studies were performed incubating CRC SW1417 cells with the CXCR4 antagonist AMD3100 (Sigma Aldrich) in a 1:10 (protein:antagonist) molar ratio for 1 h before exposure to the nanoconjugate at […] for an additional hour.
The cells were washed in phosphate-buffered saline (Sigma-Aldrich). Live cells were recorded by TCS-SP5 confocal laser scanning microscopy (Leica Microsystems, Heidelberg, Germany) using a Plan Apo 63×/1.4 (oil HC×PL APO lambda blue) objective as described. To determine particle localization inside the cell, stacks of 10-20 sections forevery 0.5 μm of cell thickness were collected and three-dimensional models were generated using Imaris version 6.1.0 software (Bitplane, Zurich, Switzerland).

[6] = system: CXCR4^+ HeLa human cervical carcinoma cell line; experiment: Internalization in CXCR4+ HeLa cells (flow cytometry, AMD3100 competition); assay type: cell-based; conditions: pre-treatment, 1:10 molar ratio
Description: To assess specificity for CXCR4 receptor mediated internalization, competition studies incubating CXCR4^+ HeLa cells with the CXCR4 antagonist AMD3100 (octahydrochloride hydrate, Sigma-Aldrich) were performed in a 1:10 (Protein:antagonist) molar ratio for 1 h before exposure to the nanoconjugate, as previously described for the T22-GFP-H6.
Nuclei were labeled with Hoechst 33342 (Life Technologies) and plasma membranes CellMask™ Deep Red (Life Technologies).

[7] = system: subcutaneous CXCR4^+ SW1417 CRC tumor; experiment: Tumor uptake and tumor cell internalization in subcutaneous CXCR4+ SW1417 CRC model; conditions: fluorescence emission
Description: (§4) SC model was used to assess tumor uptake and nanoconjugate internalization and in vivo competition studies using co-administration of the CXCR4 antagonist AMD3100.
(§5) Two hours, 5 h and 24 h after the administration, the mouse was euthanized to resect the tumor and register ex vivo the intensity of the green fluorescence emitted by the nanoconjugated that biodistributed to tumor tissue using the IVIS® 200-Spectrum (Perkin Elmer, MA, USA). Following, tumor tissue samples were taken, processed and performed immunohistochemistry (IHC) to determine the presence or absence of the corresponding nanoconjugate into cytosol of tumor cells using an anti-GFP antibody (1:300; Santa-Cruz Biotechnology, CA, USA). […] Apoptosis was assessed determining nuclear condensation with Hoechst staining of tumor tissue sections and counting the number of condensed or defragmented nuclei in five high-power magnification fields in different sections for each tumor using the Olympus DP73 digital camera and the CellD Imaging 3.3 programme (Olympus, Tokyo, Japan).

[8] = Nanoparticle size by dynamic light scattering; assay type: physicochemical; conditions: Example 2; unit not given
Description: The volume and size distribution of the nanoparticles was determined by dynamic light scattering at 633 nm (Zetasizer Nano ZS, Malvern Instruments Limited, Malvern, Worcestershire, UK). Nanoconjugate size was also measured using purified samples, diluted to 0.2 mg/mL and contrasted by evaporation of 1 nm platinum layer in carbon-coated grids, before being visualized in a Hitachi H-7000 transmission electron microscope (TEM), as described33.

[9] = system: subcutaneous CXCR4^+ SW1417 CRC tumor; conditions: mouse, in vivo, iv
Description: as §4, §5

[10] = Prevention protocol, 3 histology sections, mean + SE

For “5′-(FdU)5-3′ [free oligo-FdU, reference compound]”, the “number of apoptotic figures in tumor tissue (Hoechst nuclear condensation or defragmentation)” value [1] was 7.1±0.6, the “number of DSBs foci in tumors (anti-gH2AX IHC)” value [1] was 13.4±0.7 and the “CXCR4+ CCF in tumor tissue along time” value [2] was “remained similar to its basal level along time”. The “LN foci, mean foci number per mouse” value ([3]; Prevention protocol, 20 μg (or equimolecular) q3d x12 i.v., 3 histology sections, mean + SE) was 3.1 ± 0.4, the “Liver foci, mean foci number per mouse” value [3, 10] was 1.0 ± 0.3 ^c and the “Lung foci, mean foci number per mouse” value [3, 10] was 4.5 ± 1.6 ^e. The “Peritoneal foci, mean foci number per mouse” value [3, 10] was 2.8 ± 1.0 ^g, the “total or mean foci number at any site (LN, liver, lung, peritoneum)” value ([3]; compared to buffer-treated animals) was “did not reduce” and the “Metastasis Liver [%]” value ([3]; end of prevention experiment) was “[55]^a %”. The “Metastasis Liver, affected/total mice” value ([3]; end of prevention experiment) was 6/11, the “Metastasis Lung [%]” value ([3]; end of prevention experiment) was “[55]^c %” and the “Metastasis Lung, affected/total mice” value ([3]; end of prevention experiment) was 6/11. The “Metastasis Lymph nodes [%]” value ([3]; end of prevention experiment) was “[100] %”, the “Metastasis Lymph nodes, affected/total mice” value ([3]; end of prevention experiment) was 11/11 and the “Metastasis Peritoneal [%]” value ([3]; end of prevention experiment) was “[45] %”. For the same molecule, the “Metastasis Peritoneal, affected/total mice” value ([3]; end of prevention experiment) was 5/11, the “remaining CXCR4^+ CCF in liver, lung and peritoneal metastatic tissue (anti-CXCR4 IHC)” value ([3]; end of prevention experiment) was “does not reduce” and the “Metastasis Size, Liver” value ([3]; mean foci size) was 9.6 μm^2 × 10^−3. For the same molecule, the “Metastasis Size, Lung” value ([3]; mean foci size) was 17.9 μm^2 × 10^−3, the “Metastasis Size, Lymph nodes” value ([3]; mean foci size) was 77.0 μm^2 × 10^−3 and the “Metastasis Size, Peritoneal” value ([3]; mean foci size) was 304.8 μm^2 × 10^−3. The “Primary tumor Positive/#Mice” value ([3]; mice bearing a primary tumor out of total mice per group) was 11/11, the “Primary tumor [%]” value ([3]; percent of mice bearing a primary tumor) was “[100] %” and the “primary tumor growth by in vivo bioluminescence emission” value ([3]; prevention experiment, compared to buffer-treated mice) was “no significant inhibition”. For the same molecule, the “LN foci, mean foci number per mouse” value [4] was 0.8 ± 0.2, the “Lung foci, mean foci number per mouse” value [4] was 2.0 ± 0.7 ^j,m and the “primary tumor growth by in vivo bioluminescence emission” value ([4]; regression experiment, compared to buffer treated animals) was “significantly inhibited tumor growth”.
In the case of `c1cc(CN2CCCNCCNCCCNCC2)ccc1CN1CCCNCCNCCCNCC1` [AMD3100, reference compound], the “block of T22-GFP-H6-FdU internalization by CXCR4 antagonist” value [5] is reported as “completely blocked”, the “block of T22-GFP-H6-FdU internalization in HeLa cells by CXCR4 antagonist pre-treatment” value [6] is reported as “Complete internalization block” and the “block of T22-GFP-H6-FdU tumor uptake by CXCR4 antagonist given prior to the nanoconjugate” value [7] is reported as “completely blocked”.
For “T22-GFP-H6: targeting vector: fusion protein nanoparticle of peptide T22 (CXCR4 ligand), green fluorescent protein and a Histidine tail”, the “size determined by dynamic light scattering” value [8] was 13.4+0.11, the “number of apoptotic figures in tumor tissue (Hoechst nuclear condensation or defragmentation)” value [1] was 3.0±0.3 and the “number of DSBs foci in tumors (anti-gH2AX IHC)” value [1] was “undetectable”. For the same molecule, the “LN foci, mean foci number per mouse” value [4] was 1.1 ± 0.2 ^i, the “Lung foci, mean foci number per mouse” value [4] was 1.7 ± 0.6 ^l and the “internalization into CXCR4^+ tumor cell cytosol by anti-GFP immunohistochemistry” value [9] was “internalized”.

From US12202866B2, “Therapeutic nanoconjugates and uses thereof” (UNIVERSITAT AUTÒNOMA DE BARCELONA (UAB), priority 2017, dated 2025)
